Data taken from patent US20260242415A1 (priority 2022, published 2026).
pIC50: −log10 of the molar value.

Experiments:
[1] = tested on: SARS2-S pseudotyped VSV, Omicron BA.1
[2] = tested on: SARS2-S pseudotyped VSV, Beta
[3] = tested on: SARS2-S pseudotyped VSV, Alpha
[4] = tested on: SARS2-S pseudotyped VSV, Omicron BA.2
[5] = tested on: SARS2-S pseudotyped VSV, Delta
SARS-CoV-2 spike protein = SARS-CoV-2 spike protein (Severe acute respiratory syndrome coronavirus 2, UniProt P0DTC2); type: binding; parameters: key: Results labeled “−” represent decreased binding; Results labeled “0” represent substantially similar binding; Results labeled “1” represent the original sequence; Results labeled “+” represent about 105-200% binding; Results labeled “++” represent about 200-300% binding; Results labeled “+++” represent about 300-500% binding; Results labeled “++++” represent over about 500% binding
omicron variant = conditions: cited from earlier work

Compound | binding standardized to SEQ ID NO: 1 (SARS-CoV-2 spike protein) | also measured
CC[C@H](C)[C@@H]1NC(=O)[C@H](CCC(N)=O)NC(=O)[C@H](CCC(=O)O)NC(=O)[C@H](CCCNC(=N)N)NC(=O)[C@@H]2CCCN2C(=O)[C@H](CCCNC(=N)N)NC(=O)[C@H](CCCNC(=N)N)NC(=O)[C@H](Cc2ccc(O)cc2)NC(=O)CSC[C@@H](C(=O)NCC(N)=O)NC(=O)[C@H](Cc2ccccc2)NC(=O)[C@H](C(C)C)NC(=O)[C@H](Cc2c[nH]c3ccccc23)NC(=O)[C@H](CC(C)C)NC(=O)[C@H](CO)NC(=O)CNC(=O)[C@H]([C@@H](C)CC)NC(=O)[C@H]([C@@H](C)CC)NC1=O [Compound S1b3inL1] |  | pIC50 [1]: 5.28; pIC50 [2]: 5.28; pIC50 [3]: 5.59; pIC50 [4]: 5.46; pIC50 [5]: 5.46
ARPREQIIIGSLWVF [SEQ ID NO: 16] | − | 
RAPREQIIIGSLWVF [SEQ ID NO: 17] | − | 
RRPAEQIIIGSLWVF [SEQ ID NO: 19] | 0 | 
RRPREQAIIGSLWVF [SEQ ID NO: 22] | − | 
RRPREQIAIGSLWVF [SEQ ID NO: 23] | − | 
RRPREQIIAGSLWVF [SEQ ID NO: 24] | − | 
RRPREQIIIASLWVF [SEQ ID NO: 25] | − | 
RRPREQIIIGALWVF [SEQ ID NO: 26] | − | 
RRPREQIIIGSAWVF [SEQ ID NO: 27] | − | 
RRPREQIIIGSLAVF [SEQ ID NO: 28] | − | 
RRPREQIIIGSLWVF [Compound S1b3inL1] | 1 | 
Sotrovimab |  | fold loss in potency / decrease in activity against omicron (omicron variant): 3 fold
